According to patent publication US9624175B2, “Fused-bicyclic aryl quinolinone derivatives as mutant-isocitrate dehydrogenase inhibitors” (Forma Therapeutics, Inc., priority 2015, dated 2017):

Key:
[1] = target: IDH1-R132H recombinant protein (Homo sapiens (Human), UniProt O75874, R132H); test: IDH1-R132H enzymatic assay (NADPH consumption, diaphorase/resazurin readout); assay type: biochemical; details: inhibition of NADPH consumption, 30 nM IDH1-R132H; read-out: Enzyme IDH1 R132H IC50
Procedure: (§1) Assays were performed in a 384-well black plate. An aliquot of 250 nL of compound was incubated with 10 μL of 30 nM IDH1-R132H or 10 nM IDH1-R132C recombinant protein in assay buffer (50 mM Tris pH=7.5, 150 mM NaCl, 5 mM MgCl2, 0.1% (w/v) Bovine Serum Albumin, and 0.01% Triton X-100) in each well at 25° C. for 15 minutes. After the plate was centrifuged briefly, an aliquot of 10 μL of 2 mM α-ketoglutarate and 20 μM NADPH solution prepared in assay buffer was then added to each well and the reaction was maintained at 25° C. for 45 minutes. An aliquot of 10 μL of diaphorase solution (0.15 U/mL diaphorase and 30 μM Resazurin in assay buffer) was added to each well. The plate was maintained at 25° C. for 15 minutes and then read on a plate reader with excitation and emission wavelengths at 535 nm and 590 nm, respectively. The IC50 of a given compound was calculated by fitting the dose response curve of inhibition of NADPH consumption at a given concentration with the four parameter logistic equation.

[2] = target: IDH1-R132C recombinant protein (Homo sapiens (Human), UniProt O75874, R132C); test: IDH1-R132C enzymatic assay (NADPH consumption, diaphorase/resazurin readout); assay type: biochemical; details: inhibition of NADPH consumption, 10 nM IDH1-R132C; read-out: Enzyme IDH1 R132C IC50
Procedure: as §1

Sequence of IDH1-R132H recombinant protein (O75874 whole entry R132H): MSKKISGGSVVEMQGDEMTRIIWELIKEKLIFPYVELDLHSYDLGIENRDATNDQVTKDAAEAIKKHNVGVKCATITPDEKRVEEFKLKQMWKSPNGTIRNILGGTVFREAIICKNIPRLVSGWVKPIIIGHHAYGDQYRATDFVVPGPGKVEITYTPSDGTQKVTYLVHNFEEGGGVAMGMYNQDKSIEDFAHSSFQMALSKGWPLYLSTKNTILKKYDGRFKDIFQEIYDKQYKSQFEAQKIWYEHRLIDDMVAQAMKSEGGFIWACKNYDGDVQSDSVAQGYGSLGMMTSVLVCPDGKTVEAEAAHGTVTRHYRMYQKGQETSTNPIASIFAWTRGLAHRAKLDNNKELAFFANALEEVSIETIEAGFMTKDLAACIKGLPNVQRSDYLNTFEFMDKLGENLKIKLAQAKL
Sequence of IDH1-R132C recombinant protein (O75874 whole entry R132C): as the sequence (O75874 whole entry R132H) above, with H132C counted along it

IC50 [1] [nM] | IC50 [2] [nM] | SMILES
< 100 | 100 to 1000 | C[C@H](Nc1ncc2oc(=O)n(C)c2n1)c1cc2cc(Cl)ccc2[nH]c1=O [Compound I-57, 6-chloro-3-[(1S)-1-({3-methyl-2-oxo-2H,3H-[1,3]oxazolo[4,5-d]pyrimidin-5-yl}amino)ethyl]-1,2-dihydroquinolin-2-one]
100 to 1000 | 1000 to 10000 | C[C@H](Nc1ncc2[nH]c(=O)n(C)c2n1)c1cc2cc(Cl)ccc2[nH]c1=O [Compound I-58, 6-chloro-3-[(1S)-1-[(9-methyl-8-oxo-8,9-dihydro-7H-purin-2-yl)amino]ethyl]-1,2-dihydroquinolin-2-one]
1000 to 10000 | 1000 to 10000 | C[C@H](Nc1ncc2[nH]c(=O)[nH]c2n1)c1cc2cc(Cl)ccc2[nH]c1=O [Compound I-59, 6-chloro-3-[(1S)-1-[(8-oxo-8,9-dihydro-7H-purin-2-yl)amino]ethyl]-1,2-dihydroquinolin-2-one]
100 to 1000 | 1000 to 10000 | C[C@H](Nc1ncc2c(n1)NC(=O)C2)c1cc2cc(Cl)ccc2[nH]c1=O [Compound I-60, 6-chloro-3-[(1S)-1-({6-oxo-5H,6H,7H-pyrrolo[2,3-d]pyrimidin-2-yl}amino)ethyl]-1,2-dihydroquinolin-2-one]
100 to 1000 | 100 to 1000 | C[C@H](Nc1ncc2c(n1)N(C)C(=O)C2)c1cc2cc(Cl)ccc2[nH]c1=O [Compound I-61, 6-chloro-3-[(1S)-1-({7-methyl-6-oxo-5H,6H,7H-pyrrolo[2,3-d]pyrimidin-2-yl}amino)ethyl]-1,2-dihydroquinolin-2-one]
1000 to 10000 | 1000 to 10000 | C[C@H](Nc1ncc2c(n1)NC(=O)CC2)c1cc2cc(Cl)ccc2[nH]c1=O [Compound I-62, 6-chloro-3-[(1S)-1-({7-oxo-5H,6H,7H,8H-pyrido[2,3-d]pyrimidin-2-yl}amino)ethyl]-1,2-dihydroquinolin-2-one]
